{"source": "paper PMC7644710", "about": "“Structural insights into the mechanism of rhodopsin phosphodiesterase” (Nature Communications, 2020)", "molecules": {"B1": {"name": "Rhodopsin phosphodiesterase transmembrane domain (Rh-PDE–TMD, residues 33–316) (domain or fragment, Salpingoeca rosetta, UniProt F2TZN0 33-316, looked up)", "chain": "GRGKRRAKTRNIAIASTKEVQWQGIFMIIVWLCVMGSLIFFANPEASRRVFAKFSHLQSFYGATSVAFAFATGLDILAYVNAVSDEKRVLSGILAYVDGVACISYLSMATLNLYFLVDSTQGNPVWLMRYAEWIITCPTLLYWCGLASRADRSSVSDIATADALLLAGGALSSILPSWPAFFVFAGSFATYIYVMLHMWGMFGKAMQPDFQPPPPLPRHALHLLRCEIVMSWSIFPLVEFLRRQGYIDFQVGEAMNCVADYAAKVGLAMIMVNCNLEQINALRV", "modifications": "covalently linked retinal at Lys296", "notes": "Rhodopsin phosphodiesterase (Rh-PDE) of Salpingoeca rosetta, transmembrane domain, residues 33-316; gene synthesised with human codon optimisation; TEV site between the protein and the GFP-His8 tag; also called SrRh-PDE–TMD; source: HEK293S GnTI- cells (pEG BacMam), purified (TALON, TEV cleavage, SEC) in LMNG/CHS; not shown: GFP-His8, C-terminal, cleaved"}, "B2": {"name": "Full-length rhodopsin phosphodiesterase from Salpingoeca rosetta (enzyme, UniProt F2TZN0 1-704, looked up)", "chain": "MGRKNAANSSMLQEASMNNYSMTSAASGASSSGRGKRRAKTRNIAIASTKEVQWQGIFMIIVWLCVMGSLIFFANPEASRRVFAKFSHLQSFYGATSVAFAFATGLDILAYVNAVSDEKRVLSGILAYVDGVACISYLSMATLNLYFLVDSTQGNPVWLMRYAEWIITCPTLLYWCGLASRADRSSVSDIATADALLLAGGALSSILPSWPAFFVFAGSFATYIYVMLHMWGMFGKAMQPDFQPPPPLPRHALHLLRCEIVMSWSIFPLVEFLRRQGYIDFQVGEAMNCVADYAAKVGLAMIMVNCNLEQINALRVQQMHSALTGMLKVMRKTNLSSSRMAQLDGVDDDVKSWIMNEFSGSTDGKGGDDAKAQQRARGRKGHSAAMDAEKLAASSLFTWDFDALDKSDEDLTAVCVRVFQELHVIEQFNIDEKKLRKWLQKVRTQYNKNPFHNWRHAVMVLHTTYLLLTSVATEFITEVELLAMLIAALSHDLDHNGLTNAFHINSRSELALVYNDQSVLENHHSHLAFEILLEKGCNVVENLDEDEFKRLRAVIINCILNTDMATHHTKLSKMEEVNRLGGFINLAENNDQRLFVLAVLLHTADLHNPIKPFESNKRWSARLQKEFNNQVELEAKMNLPSLPFMRGNDEESLAKGEIGFINFVVKPWHQQLSQAFPKLDFLLDTIDANLAEWKAIAESYRQMH", "notes": "Rhodopsin phosphodiesterase (Rh-PDE) of Salpingoeca rosetta, full length; also called full-length Rh-PDE; Rh-PDE (full); source: purified as the TMD constructs (HEK293S GnTI- cells) but in DDM/CHS; reconstituted in an asolectin lipid bilayer; not shown: GFP-His8, C-terminal, cleaved"}}, "key": {"[1]": {"target": "T1, Rh-PDE-TMD (SrRh-PDE transmembrane domain) (Salpingoeca rosetta, UniProt F2TZN0)", "T1 construct": "gene PTSG_02023; rhodopsin / transmembrane domain (TM0-7), residues 33-316; C-terminal GFP-His8 cut by TEV; HEK293S GnTI-; dimer", "assay": "X-ray crystallography, […] Å", "assay_type": "binding", "conditions": "covalent; Schiff base at Lys296 in TM7; LCP crystals, pH 5.0"}, "[2]": {"target": "T2, Rh-PDE wt (full-length) (Salpingoeca rosetta, UniProt F2TZN0)", "T2 construct": "gene PTSG_02023; full-length, RHO 1D4 tag, ~75 kDa; human codon-optimised gene expressed in HEK293T; dimer", "assay": "HPLC hydrolysis assay, HEK293T homogenate", "assay_type": "biochemical", "conditions": "100 μM cGMP, dark or light (Y52 filter), 3 mM MgCl2, pH 6.5, room temperature"}, "[3]": {"target": "the molecule itself", "assay": "SEC-MALS; SEC-MALLS, Superdex 200 Increase 10/300, 4 °C, 20 mM Tris-HCl pH 8.0, 150 mM NaCl, 0.01% LMNG; three-detector method"}, "[4]": {"target": "the molecule itself", "assay": "high-speed atomic force microscopy (HS-AFM); purified full-length Rh-PDE reconstituted in an asolectin lipid bilayer, on APTES-treated mica, buffer without detergent, room temperature, tapping mode"}}}
{"molecule": "CC1=C(/C=C/C(C)=C/C=C/C(C)=C/C=O)C(C)(C)CCC1", "note": "[all-trans retinal]", "values": [{"measurement": "X-ray crystallography, 2.6 Å", "setting": "[1]", "value": "canonical rhodopsin-like topology with covalently linked retinal at Lys296 in TM7"}]}
{"molecule": "Nc1nc2c(ncn2[C@@H]2O[C@@H]3COP(=O)(O)O[C@H]3[C@H]2O)c(=O)[nH]1", "note": "[cGMP]", "values": [{"measurement": "HPLC hydrolysis assay, HEK293T homogenate", "setting": "[2]", "value": "The wild-type Rh-PDE showed three and twofold light-induced productions of cAMP and cGMP, respectively"}]}
{"molecule": "B1", "values": [{"measurement": "stoichiometry N", "setting": "[3]", "value": 2}]}
{"molecule": "B2", "values": [{"measurement": "stoichiometry N", "setting": "[4]", "value": 2}]}
